Laboratory results as given in BindingDB's records for doi:10.1021/ml2001455 (2011).

Legend:
[1] = molecular target: T1, Mitogen-activated protein kinase 14 (Homo sapiens, UniProt Q16539); assay: Inhibition of p38alpha in human PBMC assessed as inhibition of LPS-induced TNFalpha production after 16 to 18 hrs by ELISA
[2] = molecular target: T1, Mitogen-activated protein kinase 14; assay: Inhibition of p38alpha kinase using KRELVEPLTPSGEAPNQALLR as substrate for 20 mins by lactate dehydrogenase-coupled spectrophotometric assay
[3] = molecular target: T1, Mitogen-activated protein kinase 14; assay: Inhibition of p38alpha in human PBMC assessed as inhibition of LPS-induced IL1beta production after 16 to 18 hrs by ELISA

T1 sequence (Q16539 whole entry): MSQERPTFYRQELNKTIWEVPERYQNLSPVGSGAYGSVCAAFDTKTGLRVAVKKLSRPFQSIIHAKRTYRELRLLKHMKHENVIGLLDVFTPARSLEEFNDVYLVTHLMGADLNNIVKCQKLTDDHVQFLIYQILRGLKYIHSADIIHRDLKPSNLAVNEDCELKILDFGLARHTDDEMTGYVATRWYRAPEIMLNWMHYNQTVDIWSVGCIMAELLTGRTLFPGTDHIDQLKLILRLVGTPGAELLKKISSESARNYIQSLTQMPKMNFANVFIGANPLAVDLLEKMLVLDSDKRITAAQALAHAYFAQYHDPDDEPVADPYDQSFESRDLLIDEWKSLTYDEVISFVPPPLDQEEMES

`COc1ccc(-c2c(=O)ncn3nc(Sc4ccccc4)ccc23)cc1` showed an IC50 [1] greater than 20 µM and an IC50 [2] greater than 20 µM.
Compound `O=c1ncn2nc(Sc3ccccc3)ccc2c1-c1ccc(Cl)c(Cl)c1` has an IC50 [3] greater than 20 µM, an IC50 [1] greater than 20 µM and an IC50 [2] greater than 20 µM.
Work on `COc1ccccc1-c1c(=O)ncn2nc(Sc3ccccc3)ccc12` yielded an IC50 [1] greater than 20 µM.
